The CheMixHub ionic liquid set

Experiment: xn = mol fraction of the nth substance listed
Details: 100 kPa

CC[n+]1ccn(C)c1.O=S(=O)([O-])C(F)(F)F + CN(C)C=O + OCCO
viscosity [mPa·s]
Details | 298.15 K | 303.15 K | 308.15 K | 313.15 K | 318.15 K | 323.15 K
x2 = 0.0208, x3 = 0.1868 | 29.3 | 24.8 | 21.15 | 18.23 | 15.83 | 13.8
x2 = 0.0306, x3 = 0.198 | 27.9 | 23.6 | 20.16 | 17.39 | 15.11 | 13.18
x2 = 0.0398, x3 = 0.2206 | 25.8 | 21.9 | 18.69 | 16.15 | 14.06 | 12.27
x2 = 0.0679, x3 = 0.2281 | 23.5 | 20 | 17.13 | 14.83 | 12.93 | 11.29
x2 = 0.0847, x3 = 0.2475 | 21.3 | 18.2 | 15.61 | 13.54 | 11.83 | 10.34
x2 = 0.1005, x3 = 0.2658 | 19.4 | 16.5 | 14.24 | 12.39 | 10.85 | 9.48
x2 = 0.1248, x3 = 0.2717 | 17.7 | 15.2 | 13.09 | 11.41 | 10.01 | 8.76
x2 = 0.1637, x3 = 0.2744 | 15.6 | 13.4 | 11.59 | 10.14 | 8.92 | 7.81
x2 = 0.1852, x3 = 0.2798 | 14.3 | 12.3 | 10.67 | 9.35 | 8.25 | 7.23
x2 = 0.2057, x3 = 0.2849 | 13.1 | 11.3 | 9.84 | 8.64 | 7.64 | 6.7
x2 = 0.2567, x3 = 0.2666 | 11.6 | 10.1 | 8.83 | 7.78 | 6.9 | 6.06
x2 = 0.3179, x3 = 0.2469 | 9.96 | 8.69 | 7.63 | 6.76 | 6.02 | 5.29
x2 = 0.3633, x3 = 0.2306 | 8.7 | 7.63 | 6.74 | 6 | 5.34 | 4.85
x2 = 0.4128, x3 = 0.2106 | 7.83 | 6.89 | 6.11 | 5.45 | 4.89 | 4.31
x2 = 0.469, x3 = 0.1967 | 6.48 | 5.75 | 5.13 | 4.61 | 4.16 | 3.68
x2 = 0.5074, x3 = 0.1828 | 5.85 | 5.22 | 4.68 | 4.22 | 3.85 | 3.19
x2 = 0.5624, x3 = 0.1668 | 4.75 | 4.27 | 3.86 | 3.51 | 3.19 | 2.84
x2 = 0.6135, x3 = 0.152 | 3.92 | 3.55 | 3.24 | 2.96 | 2.71 | 2.43
x2 = 0.6611, x3 = 0.1382 | 3.32 | 3.02 | 2.76 | 2.53 | 2.32 | 2.15
x2 = 0.7126, x3 = 0.1243 | 2.61 | 2.41 | 2.23 | 2.07 | 1.92 | 1.74
x2 = 0.7536, x3 = 0.1124 | 2.33 | 2.14 | 1.98 | 1.83 | 1.7 | 1.58
x2 = 0.7982, x3 = 0.1005 | 1.83 | 1.7 | 1.59 | 1.49 | 1.4 | 1.29
x2 = 0.8449, x3 = 0.0889 | 1.53 | 1.42 | 1.33 | 1.24 | 1.17 | 1.09
x2 = 0.8948, x3 = 0.0712 | 1.22 | 1.14 | 1.07 | 1.01 | 0.95 | 0.89
